The text below walks through data of ChEMBL document CHEMBL3352007, “Deoxyribonuclease inhibitors” (Eur J Med Chem, 2014).

The target of assay [1] is T1, Deoxyribonuclease-1 (Homo sapiens, UniProt P24855).
T1 sequence (P24855 whole entry): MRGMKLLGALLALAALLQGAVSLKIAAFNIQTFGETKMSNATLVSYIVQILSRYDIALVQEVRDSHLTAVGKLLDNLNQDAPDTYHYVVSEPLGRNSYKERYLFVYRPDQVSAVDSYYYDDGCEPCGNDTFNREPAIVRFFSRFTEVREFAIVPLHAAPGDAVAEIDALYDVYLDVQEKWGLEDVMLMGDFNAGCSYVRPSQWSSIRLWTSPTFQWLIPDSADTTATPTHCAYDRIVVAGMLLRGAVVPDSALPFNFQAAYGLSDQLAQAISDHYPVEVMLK
In words: Inhibition of DNase 1 (unknown origin).

For assay [2], the target named is T1, Deoxyribonuclease-1. The assay can be described thus: Inhibition of DNase 1 (unknown origin) using (FAM)-labeled dsDNA as substrate.

SMILES strings stand for the structures.

The term IC50 denotes the concentration that gives 50% inhibition. High values mean a need for much substance, low ones inhibition by little substance. The compound `O=C(O)c1ccc(Nc2nc(Cl)nc(Cl)n2)cc1-c1c2ccc(=O)cc-2oc2cc(O)ccc12` returned a 50% inhibitory concentration (IC50) against Deoxyribonuclease-1 [1] of over 300 µM.

As for `CN(C)c1ccc(C(=C2C=CC(=[N+](C)C)C=C2)c2ccc(N(C)C)cc2)cc1` [GENTIAN VIOLET], it took 350 nM to reach half-maximal inhibition against Deoxyribonuclease-1 [2] (IC50).
